# Columns and labels:
# Swiss-Webster mice [1] = assay: Locomotor stimulant and depressant effects in mice; conditions: i.p.
# [2] = test system: New Zealand white rabbits; assay: Pupil diameter / mydriasis after topical application to the rabbit eye; format: in vivo; conditions: for Pupil Diameter: mean ± S.E.
# Protocol: These diastereomers were administered topically as either 1% or 2% solutions in buffered saline. Pupillary diameter and IOP were measured in all animals over a six hour time period during the day to minimize diurnal variations in IOP and pupil diameter.
# The experiments were performed on adult male New Zealand white rabbits weighing 3.0–6.0 kg. All rabbits were caged individually and maintained on a 12 hr/12 hr light/dark schedule with free access to food and water. All animal procedures were in conformity with the ARVO Resolution on the Use and Care of Animals in Research. All treated rabbits had served as controls by having received a saline treatment on a different day.
# Only one eye received drug treatment. The contralateral eye served as a control. Saline (or PBS) and drug treated rabbits were treated and observed simultaneously. A single dose was given at time zero and IOP and pupil diameter measured at −1.0, −0.5, 0.5, 1, 3 and 5 hrs post-treatment.
# Pupil diameter was measured visually at the point of the greatest horizontal diameter with a transparent millimeter ruler. All measurements were made under the identical ambient lighting conditions.
# Mean and Standard Error values were used to construct time-response and dose-response curves for the treated and contralateral eye of research rabbits. The data were analyzed statistically by an analysis of variance and a Bonferoni's test for significance. P<0.05 was the accepted level of significance.
# Swiss-Webster mice [3] = assay: H1 receptor antagonist (triprolidine) interaction study, locomotor activity in mice; conditions: mice pretreated with triprolidine 20 min before the test compound
# [4] = test system: New Zealand white rabbits; assay: Intraocular pressure (IOP) after topical application to the rabbit eye; format: in vivo; conditions: for IOP: mean ± S.E.
# [5] = — denotes absence of significant effect
# [6] = 1% topical, drug treated eye (T), 0.5 hr
# [7] = 1% topical, drug treated eye (T), 1 hr
# [8] = 1% topical, drug treated eye (T), 3 hr
# [9] = 1% topical, drug treated eye (T), 5 hr
# [10] = 1% topical, drug treated eye (T), −0.5 hr (pre-treatment)
# [11] = 1% topical, drug treated eye (T), −1 hr (pre-treatment)
# [12] = 1% topical, untreated contralateral eye (U), 0.5 hr
# [13] = 1% topical, untreated contralateral eye (U), 1 hr
# [14] = 1% topical, untreated contralateral eye (U), 3 hr
# [15] = 1% topical, untreated contralateral eye (U), 5 hr
# [16] = 1% topical, untreated contralateral eye (U), −0.5 hr (pre-treatment)
# [17] = 1% topical, untreated contralateral eye (U), −1 hr (pre-treatment)
# [18] = 2% topical, drug treated eye (T), 0.5 hr
# [19] = 2% topical, drug treated eye (T), 1 hr
# [20] = 2% topical, drug treated eye (T), 3 hr
# [21] = 2% topical, drug treated eye (T), 5 hr
# [22] = 2% topical, drug treated eye (T), −0.5 hr (pre-treatment)
# [23] = 2% topical, drug treated eye (T), −1 hr (pre-treatment)
# [24] = 2% topical, untreated contralateral eye (U), 0.5 hr
# [25] = 2% topical, untreated contralateral eye (U), 1 hr
# [26] = 2% topical, untreated contralateral eye (U), 3 hr
# [27] = 2% topical, untreated contralateral eye (U), 5 hr
# [28] = 2% topical, untreated contralateral eye (U), −0.5 hr (pre-treatment)
# [29] = 2% topical, untreated contralateral eye (U), −1 hr (pre-treatment)
substance,measurement,setting,value
(−)-norpseudoephedrine,Depression Time: 30-min period following injection in which the maximal depression occurred,Swiss-Webster mice [1],10 to 40 min
same,Stimulation Time: 30-min period following injection in which the maximal stimulant effect occurred,Swiss-Webster mice [1],40 to 70 min
same,"locomotor depressant effects, time course (result in words)",Swiss-Webster mice [1],locomotor depression at an earlier time (10–40 minutes following injection) and with a lower dose range
same,"locomotor stimulant effects, time course (result in words)",Swiss-Webster mice [1],Dose-dependent increases in locomotor activity of slower onset and longer duration
same,Depression Potency: dose resulting in ½ the maximal depressant effect (ID50),Swiss-Webster mice [1]; [5],3.9 mg/kg
same,Stimulation Potency: dose resulting in ½ the maximal stimulant effect (ID50),Swiss-Webster mice [1]; [5],51.1 mg/kg
same,mydriasis / pupil diameter (result in words),"[2]; 1% or 2% topical, rabbit",significant mydriasis
same,"Mydriatic Responses, TREATED EYE",[2]; 1% topical,+ (+ = 0–2 mm change)
same,"Mydriatic Responses, UNTREATED EYE",[2]; 1% topical,+ (+ = 0–2 mm change)
same,Pupil Diameter,[2]; [6],6 ± 0.2 mm
same,Pupil Diameter,[2]; [7],6 ± 0.2 mm
same,Pupil Diameter,[2]; [8],6 ± 0.2 mm
same,Pupil Diameter,[2]; [9],6 ± 0.2 mm
same,Pupil Diameter,[2]; [10],5 ± 0.2 mm
same,Pupil Diameter,[2]; [11],5 ± 0.2 mm
same,Pupil Diameter,[2]; [12],6 ± 0.2 mm
same,Pupil Diameter,[2]; [13],6 ± 0.2 mm
same,Pupil Diameter,[2]; [14],6 ± 0.2 mm
same,Pupil Diameter,[2]; [15],6 ± 0.2 mm
same,Pupil Diameter,[2]; [16],5 ± 0.2 mm
same,Pupil Diameter,[2]; [17],5 ± 0.2 mm
same,"Mydriatic Responses, TREATED EYE",[2]; 2% topical,++ (++ = 2–4 mm change)
same,"Mydriatic Responses, UNTREATED EYE",[2]; 2% topical,++ (++ = 2–4 mm change)
same,Pupil Diameter,[2]; [18],9 ± 0.4 mm
same,Pupil Diameter,[2]; [19],9 ± 0.4 mm
same,Pupil Diameter,[2]; [20],9 ± 0.4 mm
same,Pupil Diameter,[2]; [21],9 ± 0.4 mm
same,Pupil Diameter,[2]; [22],6 ± 0.4 mm
same,Pupil Diameter,[2]; [23],6 ± 0.4 mm
same,Pupil Diameter,[2]; [24],9 ± 0.4 mm
same,Pupil Diameter,[2]; [25],9 ± 0.4 mm
same,Pupil Diameter,[2]; [26],9 ± 0.4 mm
same,Pupil Diameter,[2]; [27],9 ± 0.4 mm
same,Pupil Diameter,[2]; [28],6 ± 0.4 mm
same,Pupil Diameter,[2]; [29],6 ± 0.4 mm
same,effect of triprolidine pretreatment on stimulant or depressant effects,Swiss-Webster mice [3],Significant effects for pretreatment with triprolidine
same,effect on IOP (result in words),"[4]; 1% or 2% topical, rabbit",accompanying increase in IOP
same,IOP,[4]; [6],17 ± 1.0 mmHg
same,IOP,[4]; [7],17 ± 1.5 mmHg
same,IOP,[4]; [8],21 ± 1.6 mmHg
same,IOP,[4]; [9],18 ± 1.0 mmHg
same,IOP,[4]; [10],18 ± 1.6 mmHg
same,IOP,[4]; [11],17 ± 1.0 mmHg
same,IOP,[4]; [12],21 ± 1.0 mmHg
same,IOP,[4]; [13],18 ± 1.6 mmHg
same,IOP,[4]; [14],20 ± 1.9 mmHg
same,IOP,[4]; [15],23 ± 0.9 mmHg
same,IOP,[4]; [16],20 ± 1.7 mmHg
same,IOP,[4]; [17],17 ± 1.5 mmHg
same,IOP,[4]; [18],15 ± 0.5 mmHg
same,IOP,[4]; [19],18 ± 0.7 mmHg
same,IOP,[4]; [20],18 ± 1.1 mmHg
same,IOP,[4]; [21],18 ± 1.4 mmHg
same,IOP,[4]; [22],15 ± 0.9 mmHg
same,IOP,[4]; [23],16 ± 1.9 mmHg
same,IOP,[4]; [24],16 ± 1.2 mmHg
same,IOP,[4]; [25],19 ± 1.2 mmHg
same,IOP,[4]; [26],22 ± 1.5 mmHg
same,IOP,[4]; [27],21 ± 1.1 mmHg
same,IOP,[4]; [28],17 ± 0.7 mmHg
same,IOP,[4]; [29],16 ± 1.0 mmHg
